The values that follow come from publication PMC7504677, “Impact of N-Alkylamino Substituents on Serotonin Receptor (5-HTR) Affinity and Phosphodiesterase 10A (PDE10A) Inhibition of Isoindole-1,3-dione Derivatives” (Molecules, 2020).

Usually IC50 stands for the concentration that gives 50% inhibition. High values mean lower potency, low ones higher potency. A word on the melting point: it is the temperature of the solid-liquid transition.

The target in one data set is PDE10A (Homo sapiens, UniProt Q9Y233). The data set can be described thus: luminescence PDE inhibition assay (PDElight HTS cAMP phosphodiesterase assay kit). Conditions: for inhibition at 3 µM / inhibition at 10 µM: 1 h. Format: biochemical. On the procedure: Test and reference compounds were dissolved in dimethyl sulfoxide (DMSO) at a concentration of 1 mM and further diluted in assay buffer in order to obtain the final concentration of compounds: 10 µM and 3 µM, respectively. All reactions were carried out at 37 °C in white, half-area 96-well plates (Perkin Elmer, Waltham, MA, USA). The inhibition of PDE 10A enzyme was measured using the PDElight HTS cAMP phosphodiesterase assay kit (Lonza) according to the manufacturer’s recommendations. 2.5 U of PDE 10A enzyme was preincubated either with DMSO (vehicle control) or compound for 20 min before incubation with the substrate, cAMP (final concentration 1.25 µM), for 1 h. Then, PDELight AMP Detection Reagent was added. After 10 min incubation, the luminescence was measured in a multifunction plate reader (POLARstar Omega, BMG Labtech, Ortenberg, Germany).

For another data set, the target named is T1, 5-HT1A receptor (Homo sapiens, UniProt P08908).
T1 sequence (P08908 1-422): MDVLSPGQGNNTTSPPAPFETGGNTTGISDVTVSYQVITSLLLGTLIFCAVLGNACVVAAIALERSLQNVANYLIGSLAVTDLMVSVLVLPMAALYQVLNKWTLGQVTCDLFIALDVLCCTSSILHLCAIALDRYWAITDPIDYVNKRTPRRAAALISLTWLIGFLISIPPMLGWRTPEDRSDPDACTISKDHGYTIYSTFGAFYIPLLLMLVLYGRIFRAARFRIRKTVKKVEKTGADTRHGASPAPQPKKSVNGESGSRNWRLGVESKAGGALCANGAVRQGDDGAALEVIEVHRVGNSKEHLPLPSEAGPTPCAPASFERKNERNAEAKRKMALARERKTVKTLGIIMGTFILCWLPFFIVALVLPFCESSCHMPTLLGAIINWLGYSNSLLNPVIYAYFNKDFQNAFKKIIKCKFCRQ
As to the kind of experiment: radioligand binding assay, [3H]8-OH-DPAT. To be noted: read-out: 5-HT1A 1 µM ± SEM (% of control specific binding). Here is the method:
(§1) Briefly: binding experiments were conducted in 96-well microplates in a total final volume of 250 μL of appropriate buffers. Reaction mix included 50 μL solution of test compound, 50 μL of radioligand ([^3H]8-OH-DPAT for 5-HT1A, and [^3H]-LSD for 5-HT7, respectively) and 150 μL of diluted membranes (see description and Table S2 in Supporting Materials). Specific assay conditions for each receptor are described elsewhere. The radioactivity was measured in a MicroBeta2 scintillation counter (PerkinElmer, USA). Each compound was tested in the assay as duplicate samples at 1 µM final concentrations. Results were expressed as percent inhibition of specific binding.

The target in another data set is 5-HT7 receptor (Homo sapiens, UniProt P34969). The data set can be described thus: radioligand binding assay, [3H]-LSD. Conditions: read-out: 5-HT7 1 µM ± SEM (% of control specific binding). On the procedure: as §1
A further data set addresses T2, 5-HT2A receptor (Homo sapiens, UniProt P28223).
T2 construct: Cerep (protocol)
The data set can be described thus: CEREP screening, inhibition of control binding. To be noted: CEREP Laboratories, read-out: percent of inhibition of the control binding for 5-HT2A.

A further data set deals with T3, D2 receptor (Homo sapiens, UniProt P14416).
T3 construct: Cerep (protocol)
The data set can be described thus: CEREP screening, inhibition of control binding. Conditions: CEREP Laboratories, read-out: percent of inhibition of the control binding for D2.

Data set [1] concerns HePG2 human liver cancer cell-line. The data set can be described thus: MTT cytotoxicity assay. Format: cell-based. Conditions: HepG2 cells, 24 h, 0.1–100 µM. On the procedure: (§2) The HePG2 human liver cancer cell-line, (ATCC® 59195™) and the SH-SY5Y human neuroblastoma cell-line (ATCC® CRL-2266™) were used in the study. The cells were cultured in standard conditions (37 °C, 5% CO2), in EMEM (HepG2 and SH-SY5Y), supplemented with 10% fetal bovine serum (FBS) (Gibco, Thermo Fisher Scientific, Waltham, MA. USA) and antibiotics (Lonza, Köln, Germany).
(§3) The MTT assay was used to determine the cytotoxic effects of the analyzed compounds. Cells were seeded at a density of 2 × 10^4 in 96-well plates. Following overnight culture, cells were then treated with increasing concentrations of compound 18 (0.1–100 µM) and incubated for 24 h. Following cell exposure for 24 h, 10 µL MTT reagent (Sigma Aldrich) was added to each well and, after 3 h of incubation (37 °C, 5% CO2), the medium was aspirated and the formazan produced in the cells appeared as dark crystals in the bottom of the wells. Next, Crystal DMSO was added to each well. Then, the optical density (OD) of each well was determined at 570 nm on a plate-reader (Spectra iD3, Molecular Devices, San Jose, CA, USA). The number of metabolically active and living cells is directly proportional to the absorbance of the samples. The results are presented in Figure 5 as the percentage of control ± SEM. Doxorubicin was used as reference standard (cytotoxic agent).
(Formazan colour is commonly taken as a measure of viable cells.)

The test system of data set [2] is SH-SY5Y human neuroblastoma cell-line. The data set can be described thus: MTT cytotoxicity assay. It counts as cell-based. Conditions: SHSY-5Y cells, 24 h, 0.1–100 µM. Here is the method: as §2, §3
Data set [3] deals with CD-1 mice. As to the kind of experiment: d-amphetamine-induced hyperlocomotor activity. It counts as in vivo. On the procedure: The experiments were performed on male CD-1 mice (in the accredited animal facility at the Jagiellonian University Medical College, Krakow, Poland), and mice were kept in groups of ten in Makrolon type 3 cages (dimensions 26.5 × 15 × 42 cm). The animals were kept in an environmentally controlled room (ambient temperature 22 ± 2 °C; relative humidity 50–60%; 12:12 light:dark cycle, lights on at 8:00). They were allowed to acclimatize with the environment for one week before commencement of the experiments. Standard laboratory food (Ssniff M-Z) and filtered water were freely available. All the experimental procedures were approved by the I Local Ethics Commission at the Jagiellonian University in Krakow (Approval Nos.: 125/2017, 123/2015, and 158/2017). All the experiments were conducted in the light phase between 09.00 and 14.00 h. Each experimental group consisted of 7–10 animals per treatment dose. The animals were used only once. Locomotor activity was recorded with an Opto M3 multi-channel activity monitor (MultiDevice Software v.1.3, Columbus Instruments, Columbus, OH, USA). The CD-1 mice were individually placed in plastic cages (22 × 12 × 13 cm) immediately after drug administration, and then ambulation was counted during 1 h with data recording every 10 min. The cages were cleaned up with 70% ethanol after each mouse. […] All compounds were injected at a volume of 10 mL/kg. Control animals received a vehicle injection according to the same schedule.

For data set [4], the system named is CD-1 mice. As to the kind of experiment: spontaneous locomotor activity. Conditions: for spontaneous locomotor activity: mean ± S.E.M. It counts as in vivo. On the procedure:
The experiments were performed on male CD-1 mice (in the accredited animal facility at the Jagiellonian University Medical College, Krakow, Poland), and mice were kept in groups of ten in Makrolon type 3 cages (dimensions 26.5 × 15 × 42 cm). The animals were kept in an environmentally controlled room (ambient temperature 22 ± 2 °C; relative humidity 50–60%; 12:12 light:dark cycle, lights on at 8:00). They were allowed to acclimatize with the environment for one week before commencement of the experiments. Standard laboratory food (Ssniff M-Z) and filtered water were freely available. All the experimental procedures were approved by the I Local Ethics Commission at the Jagiellonian University in Krakow (Approval Nos.: 125/2017, 123/2015, and 158/2017).
All the experiments were conducted in the light phase between 09.00 and 14.00 h. Each experimental group consisted of 7–10 animals per treatment dose. The animals were used only once.
Locomotor activity was recorded with an Opto M3 multi-channel activity monitor (MultiDevice Software v.1.3, Columbus Instruments, Columbus, OH, USA). The CD-1 mice were individually placed in plastic cages (22 × 12 × 13 cm) immediately after drug administration, and then ambulation was counted during 1 h with data recording every 10 min. The cages were cleaned up with 70% ethanol after each mouse.
Locomotor activity was recorded according to the method described above.
All compounds were injected at a volume of 10 mL/kg. Control animals received a vehicle injection according to the same schedule.

Setting [5] is: percentage of inhibition respective to vehicle control (DMSO), 3 µM.
Setting [6] is: percentage of inhibition respective to vehicle control (DMSO), 10 µM.
Setting [7] is: 60 mg/kg ip, 10 min of the test.
[8] abbreviates: 60 mg/kg ip, 20 min of the test.
The mark [9] stands for this setting: 60 mg/kg ip, 30 min of the test.
Where [10] appears, read: 60 mg/kg ip, 60 min of the test.

Sequence of PDE10A (Q9Y233 whole entry, species assumed): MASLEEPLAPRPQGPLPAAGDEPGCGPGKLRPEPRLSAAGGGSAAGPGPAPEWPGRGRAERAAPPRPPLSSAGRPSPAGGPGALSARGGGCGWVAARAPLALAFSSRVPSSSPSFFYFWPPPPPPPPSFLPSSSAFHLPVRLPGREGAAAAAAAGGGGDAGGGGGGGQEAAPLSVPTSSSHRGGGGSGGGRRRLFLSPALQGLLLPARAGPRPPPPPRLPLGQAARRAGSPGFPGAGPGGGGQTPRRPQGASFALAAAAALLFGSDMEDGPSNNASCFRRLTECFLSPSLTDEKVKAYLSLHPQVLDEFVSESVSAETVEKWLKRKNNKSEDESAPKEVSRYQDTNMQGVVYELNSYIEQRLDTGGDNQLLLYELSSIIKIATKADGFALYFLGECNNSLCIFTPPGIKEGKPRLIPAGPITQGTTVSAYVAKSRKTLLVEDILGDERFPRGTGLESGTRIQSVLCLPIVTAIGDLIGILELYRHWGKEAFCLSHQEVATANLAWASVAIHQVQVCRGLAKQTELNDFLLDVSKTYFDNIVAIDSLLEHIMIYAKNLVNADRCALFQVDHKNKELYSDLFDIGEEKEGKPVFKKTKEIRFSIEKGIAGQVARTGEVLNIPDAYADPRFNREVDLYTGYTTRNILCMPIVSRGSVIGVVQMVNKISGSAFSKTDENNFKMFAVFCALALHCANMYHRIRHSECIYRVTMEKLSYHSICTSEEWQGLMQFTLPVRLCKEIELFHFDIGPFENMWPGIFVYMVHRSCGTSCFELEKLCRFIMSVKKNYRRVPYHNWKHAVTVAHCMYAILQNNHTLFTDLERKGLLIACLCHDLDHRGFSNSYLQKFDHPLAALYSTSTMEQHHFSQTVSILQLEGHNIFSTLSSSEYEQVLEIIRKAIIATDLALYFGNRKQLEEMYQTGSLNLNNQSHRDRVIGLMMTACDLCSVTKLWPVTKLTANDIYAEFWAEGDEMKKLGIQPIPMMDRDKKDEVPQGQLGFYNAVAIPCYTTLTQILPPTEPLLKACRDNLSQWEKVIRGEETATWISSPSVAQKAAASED
Sequence of 5-HT7 receptor (P34969 whole entry): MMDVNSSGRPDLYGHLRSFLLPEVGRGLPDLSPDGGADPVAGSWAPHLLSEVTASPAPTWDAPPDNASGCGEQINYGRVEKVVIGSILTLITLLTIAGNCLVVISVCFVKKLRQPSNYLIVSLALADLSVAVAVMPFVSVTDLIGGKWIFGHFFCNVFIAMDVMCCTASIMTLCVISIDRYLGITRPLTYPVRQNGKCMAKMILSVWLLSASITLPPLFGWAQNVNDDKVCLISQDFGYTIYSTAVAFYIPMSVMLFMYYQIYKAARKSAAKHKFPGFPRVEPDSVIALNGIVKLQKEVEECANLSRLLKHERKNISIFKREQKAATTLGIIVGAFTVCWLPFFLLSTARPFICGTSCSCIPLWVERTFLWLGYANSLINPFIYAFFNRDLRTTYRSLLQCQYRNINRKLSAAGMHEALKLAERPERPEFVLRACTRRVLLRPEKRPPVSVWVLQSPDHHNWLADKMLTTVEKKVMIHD
T2 sequence (P28223 whole entry): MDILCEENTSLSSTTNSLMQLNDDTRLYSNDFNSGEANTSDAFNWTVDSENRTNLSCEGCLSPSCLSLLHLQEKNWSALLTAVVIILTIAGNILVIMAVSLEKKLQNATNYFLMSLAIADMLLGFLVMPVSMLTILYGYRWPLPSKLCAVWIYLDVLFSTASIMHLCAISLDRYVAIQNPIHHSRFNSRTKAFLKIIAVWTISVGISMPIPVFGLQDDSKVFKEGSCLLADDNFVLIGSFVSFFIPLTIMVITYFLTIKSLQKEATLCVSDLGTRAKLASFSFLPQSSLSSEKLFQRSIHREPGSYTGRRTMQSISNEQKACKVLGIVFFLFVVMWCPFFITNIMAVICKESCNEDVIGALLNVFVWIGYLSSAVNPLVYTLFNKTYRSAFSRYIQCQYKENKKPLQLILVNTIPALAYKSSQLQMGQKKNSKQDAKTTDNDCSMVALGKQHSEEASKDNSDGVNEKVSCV
T3 sequence (P14416 whole entry): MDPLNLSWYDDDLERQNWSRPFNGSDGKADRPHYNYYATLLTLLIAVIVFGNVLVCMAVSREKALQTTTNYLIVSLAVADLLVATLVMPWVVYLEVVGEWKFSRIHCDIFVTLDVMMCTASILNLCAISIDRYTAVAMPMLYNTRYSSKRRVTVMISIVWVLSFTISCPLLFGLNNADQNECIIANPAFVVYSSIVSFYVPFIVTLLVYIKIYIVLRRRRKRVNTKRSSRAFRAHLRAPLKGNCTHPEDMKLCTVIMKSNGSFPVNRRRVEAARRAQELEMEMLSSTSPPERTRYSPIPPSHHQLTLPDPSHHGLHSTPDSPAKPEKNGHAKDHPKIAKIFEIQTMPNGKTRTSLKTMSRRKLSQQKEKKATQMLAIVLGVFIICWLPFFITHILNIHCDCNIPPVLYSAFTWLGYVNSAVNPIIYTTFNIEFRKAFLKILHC

For the compound `COc1cccc2c1C(=O)N(CCCCc1nc3ccccc3[nH]1)C2=O` [Compound 18, 2-[4-(1H-Benzimidazol-2-yl)butyl]-4-methoxy-1H-isoindole-1,3(2H)-dione], the melting point fell in the range of 69 to 70 °C. Moreover, the inhibition at 3 µM against PDE10A (setting [5]) was 79%. Moreover, the inhibition at 10 µM at PDE10A (setting [6]) was determined as 92%. The same compound yielded an IC50 on PDE10A (SEM of three independent experiments performed in duplicate) of 0.886 ± 0.017 µM. Besides, on 5-HT1A receptor, the inhibition at 1 µM was determined as 28 ± 3%. Besides, the inhibition at 1 µM at 5-HT7 receptor amounted to 3 ± 1%. Further, the inhibition at 1 µM at 5-HT2A receptor stood at 8.8%. Moreover, on D2 receptor, the inhibition at 1 µM worked out at 0%. Also, the “cell viability (MTT)” value in data set [1] is recorded as “Decreasing cell viability (HepG2/SHSY-5Y) is observed only at higher concentrations”. Besides, in data set [2], the “cell viability (MTT)” value is on record as “Decreasing cell viability (HepG2/SHSY-5Y) is observed only at higher concentrations”. Also, in the data set on CD-1 mice [3] (60 mg/kg ip), the “effect on AMPH-induced hyperactivity” value is on record as “decreased AMPH-induced hyperactivity, but only for the first 10 min after injection”. The “effect on AMPH-induced hyperactivity” value in the data set with CD-1 mice [3] (lower doses (data not shown)) was “did not change the stimulating effect of AMPH”. The “effect on spontaneous locomotor activity” value in the data set with CD-1 mice [4] (60 mg/kg) is “locomotor-suppressing effects were observed”. The compound also registered a spontaneous locomotor activity in the data set with CD-1 mice [4] (setting [7]) of 176.2. In addition, the spontaneous locomotor activity in the data set with CD-1 mice [4] (setting [8]) was found to be 285.0. The compound further gave a spontaneous locomotor activity in the data set on CD-1 mice [4] (setting [9]) of 659.6. Further, the spontaneous locomotor activity in the data set with CD-1 mice [4] (setting [10]) is given as 1875.4.

Regarding `O=C1c2ccccc2C(=O)N1CCCCCc1nc2ccccc2[nH]1` [Compound 23, 2-[5-(1H-Benzimidazol-2-yl)pentyl]-1H-isoindole-1,3(2H)-dione], the melting point is 168 to 169 °C. Further, at PDE10A (setting [5]), the inhibition at 3 µM is 26%. Further, the inhibition at 10 µM against PDE10A (setting [6]) worked out at 58%. Besides, the inhibition at 1 µM on 5-HT1A receptor is 48 ± 3%. Also, the inhibition at 1 µM at 5-HT7 receptor was 34 ± 2%.

For the compound `COc1ccc(Cc2nccc3cc(OC)c(OC)cc23)cc1OC` [Papaverine, papaverine], the “PDE10A [%] 3 µM” value on PDE10A (setting [5]) was found to be 54%. Further, the “PDE10A [%] 10 µM” value at PDE10A (setting [6]) stood at 75%. Moreover, the “effect on AMPH-induced hyperactivity” value with CD-1 mice [3] (40 and 60 mg/kg ip) is “dose-dependently antagonized this response”; with CD-1 mice [3] (lower doses (data not shown)) it was “did not change the stimulating effect of AMPH”. The spontaneous locomotor activity in the data set on CD-1 mice [4] (40 mg/kg ip, 10 min of the test) came to 43.1; with CD-1 mice [4] (40 mg/kg ip, 20 min of the test), 170.2; in the data set with CD-1 mice [4] (40 mg/kg ip, 30 min of the test) it was 571.9; with CD-1 mice [4] (40 mg/kg ip, 60 min of the test) it was 2260.8; with CD-1 mice [4] (setting [7]) it was 7.1; with CD-1 mice [4] (setting [8]), 24.6. Further, the spontaneous locomotor activity in the data set on CD-1 mice [4] (setting [9]) is reported as 47.5; in the data set with CD-1 mice [4] (setting [10]), 200.4. In addition, the “effect on spontaneous locomotor activity” value in the data set on CD-1 mice [4] (40 and 60 mg/kg) was “locomotor-suppressing effects were observed”.

Take `COc1cccc2c1C(=O)c1c(O)c3c(c(O)c1C2=O)C[C@@](O)(C(=O)CO)C[C@@H]3O[C@H]1C[C@H](N)[C@H](O)[C@H](C)O1` [doxorubicin, reference compound]: the “cell viability (MTT)” value in [1] and in [2] was “significantly decreased cell viability already at much lower concentrations” throughout.
